Data reported in ChEMBL document CHEMBL1201862, “PubChem BioAssay data set” (2004).
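In this assay, cells in 96-well plates receive the compound at five concentrations for 48 hours. Endpoints are linearly interpolated between the surrounding concentrations. GI50 marks 50% less growth.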 Calls of active or inactive are those of the source. No stated cut-off is given here; in the data, active = GI50 up to about 1.1 µM and inactive = higher.

What was measured:
Assay in all cases: DTP human tumour cell line panel, 48 h
A498 = test system: A498
BT-549 = test system: BT-549
COLO 205 = test system: COLO 205
EKVX = test system: EKVX
HOP-92 = test system: HOP-92
IGROV-1 = test system: IGROV-1
K562 = test system: K562
LOX IMVI = test system: LOX IMVI
Malme-3M = test system: Malme-3M
NCI/ADR-RES = test system: NCI/ADR-RES
OVCAR-3 = test system: OVCAR-3
OVCAR-5 = test system: OVCAR-5
OVCAR-8 = test system: OVCAR-8
PC-3 = test system: PC-3
RPMI-8226 = test system: RPMI-8226
SF-295 = test system: SF-295
SK-MEL-28 = test system: SK-MEL-28
SN12C = test system: SN12C
SNB-19 = test system: SNB-19
SR = test system: SR

Measured: GI50

O=C(CSc1nc(O)nc2[nH]cnc12)Nc1ccccc1
inactive: A498 76.7 µM | BT-549 46.9 µM | COLO 205 > 100 µM | EKVX > 100 µM | HOP-92 > 100 µM | IGROV-1 > 100 µM | K562 85.3 µM | LOX IMVI 54.5 µM | Malme-3M > 100 µM | NCI/ADR-RES > 100 µM | OVCAR-3 > 100 µM | OVCAR-5 > 100 µM | OVCAR-8 > 100 µM | PC-3 36.6 µM | RPMI-8226 > 100 µM | SF-295 86.9 µM | SK-MEL-28 > 100 µM | SN12C 48.5 µM | SNB-19 > 100 µM | SR 51.6 µM

c1cc(C[S+]2CCCC2)ccc1C[S+]1CCCC1
inactive: A498 29.2 µM | BT-549 > 100 µM | COLO 205 > 100 µM | EKVX > 100 µM | HOP-92 > 100 µM | IGROV-1 > 100 µM | K562 > 100 µM | LOX IMVI > 100 µM | Malme-3M > 100 µM | NCI/ADR-RES > 100 µM | OVCAR-3 > 100 µM | OVCAR-5 > 100 µM | OVCAR-8 > 100 µM | PC-3 > 100 µM | RPMI-8226 > 100 µM | SF-295 > 100 µM | SK-MEL-28 > 100 µM | SN12C > 100 µM | SNB-19 > 100 µM | SR > 100 µM
